Bounds are passed on as bounds.

The target in the assay is hOGG1 (Homo sapiens, UniProt O15527). Kind of assay: Biochemical fluorescence assay to measure enzymatic activity of hOGG1 (OGG1/APEX IC50). More on the design: Protein His-hOGG1 (12-323) was prepared; His (N); host or cells: E. coli. The settings on record: 1 nM OGG1+2 nM APEX+6 nM dsDNA (8-oxo-dG substrate); pH 7.5; RT 40 min; read-out: OGG1/APEX IC50. Put shortly: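 His-hOGG1 (12-323, E. coli) at 1 nM with 2 nM hAPE1/APEX1, preincubated 20 min RT with compound. Then 6 nM 8-oxo-dG dsDNA substrate added, 40 min at RT in Tris pH 7.5, 100 mM KCl. TAMRA fluorescence (Ex520/Em600) converted to % inhibition vs controls; IC50 from 3-parameter fit of 10-point curve.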
Sequence of hOGG1 (O15527 12-323): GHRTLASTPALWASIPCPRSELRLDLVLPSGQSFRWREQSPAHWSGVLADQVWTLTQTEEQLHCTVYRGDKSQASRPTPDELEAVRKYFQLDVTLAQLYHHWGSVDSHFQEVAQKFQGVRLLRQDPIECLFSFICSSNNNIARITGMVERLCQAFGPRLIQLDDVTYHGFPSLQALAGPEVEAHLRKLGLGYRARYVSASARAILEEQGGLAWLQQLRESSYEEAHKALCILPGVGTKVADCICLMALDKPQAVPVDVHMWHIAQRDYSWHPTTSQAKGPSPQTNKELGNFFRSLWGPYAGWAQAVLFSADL
`Cc1ccc(NC(=O)[C@H]2CC[C@@H](N3Cc4c(C)cccc4C3=O)CC2)cc1C1COC1` [Example 125, (1s,4s)-4-(4-Methyl-1-oxoisoindolin-2-yl)-N-(4-methyl-3-(oxetan-3-yl)phenyl)cyclohexane-1-carboxamide]: the IC50 is > 10000 nM.

With `Cc1ccc(NC(=O)[C@H]2CC[C@@H](N3Cc4c(C)cccc4C3=O)CC2)cc1CO` [Example 126, (1s,4s)-N-(3-(Hydroxymethyl)-4-methylphenyl)-4-(4-methyl-1-oxoisoindolin-2-yl)cyclohexane-1-carboxamide], the IC50 was in the range of 1000 to 10000 nM.

`CCc1ccc(NC(=O)[C@H]2CC[C@@H](N3Cc4c(C)cccc4C3=O)CC2)cc1C` [Example 127, (1s,4s)-N-(4-Ethyl-3-methylphenyl)-4-(4-methyl-1-oxoisoindolin-2-yl)cyclohexane-1-carboxamide]: the IC50 fell in the range of 1000 to 10000 nM.

As for `CCc1ccc(NC(=O)[C@H]2CC[C@@H](N3Cc4c(C)cccc4C3=O)CC2)cc1C#N` [Example 128, (1s,4s)-N-(3-Cyano-4-ethylphenyl)-4-(4-methyl-1-oxoisoindolin-2-yl)cyclohexane-1-carboxamide], the IC50 was in the range of 100 to 1000 nM.

As for `Cc1cc(NCCN(C)C)cc2c1CN([C@H]1CC[C@@H](C(=O)Nc3nc4ccccc4s3)CC1)C2=O` [Example 129, (1s,4s)-N-(Benzo[d]thiazol-2-yl)-4-(6-((2-(dimethylamino)ethyl)amino)-4-methyl-1-oxoisoindolin-2-yl)cyclohexane-1-carboxamide], the IC50 was in the range of 100 to 1000 nM.

Take `Cc1cc(NCCN(C)C)cc2c1CN([C@H]1CC[C@@H](C(=O)Nc3ccn(CCO)n3)CC1)C2=O` [Example 130, (1s,4s)-4-(6-((2-(Dimethylamino)ethyl)amino)-4-methyl-1-oxoisoindolin-2-yl)-N-(1-(2-hydroxyethyl)-1H-pyrazol-3-yl)cyclohexane-1-carboxamide]: the IC50 is 1000 to 10000 nM.

Turning to `Cc1cc(NCCN(C)C)cc2c1CN([C@H]1CC[C@@H](C(=O)Nc3nc(CCO)cs3)CC1)C2=O` [Example 131, (1s,4s)-4-(6-((2-(Dimethylamino)ethyl)amino)-4-methyl-1-oxoisoindolin-2-yl)-N-(4-(2-hydroxyethyl)thiazol-2-yl)cyclohexane-1-carboxamide], the IC50 fell in the range of 1000 to 10000 nM.

As for `COc1cc(NC(=O)[C@H]2CC[C@@H](N3Cc4c(CN)ccc(Cl)c4C3=O)CC2)ccc1C` [Example 133, (1s,4s)-4-(4-(Aminomethyl)-7-chloro-1-oxoisoindolin-2-yl)-N-(3-methoxy-4-methylphenyl)cyclohexane-1-carboxamide], the IC50 is > 10000 nM.

Turning to `COc1cc(NC(=O)[C@H]2CC[C@@H](N3Cc4c(CN)cccc4C3=O)CC2)ccc1C` [Example 134, (1s,4s)-4-(4-(aminomethyl)-1-oxoisoindolin-2-yl)-N-(3-methoxy-4-methylphenyl)cyclohexane-1-carboxamide], the IC50 is > 10000 nM.

`COc1cc(NC(=O)[C@H]2CC[C@@H](N3Cc4c(C)cc(NCC5(O)CNC5)cc4C3=O)CC2)ccc1C` [Example 136, (1s,4s)-4-(6-(((3-hydroxyazetidin-3-yl)methyl)amino)-4-methyl-1-oxoisoindolin-2-yl)-N-(3-methoxy-4-methylphenyl)cyclohexanecarboxamide]: the IC50 was < 100 nM.

Take `COc1cc(NC(=O)[C@H]2CC[C@@H](N3Cc4c(C)cc(CN5CC[C@@H](O)C5)cc4C3=O)CC2)ccc1C` [Example 137, (1S,4s)-4-(6-(((R)-3-Hydroxypyrrolidin-1-yl)methyl)-4-methyl-1-oxoisoindolin-2-yl)-N-(3-methoxy-4-methylphenyl)cyclohexanecarboxamide]: the IC50 was < 100 nM.

With `COc1cc(NC(=O)[C@H]2CC[C@@H](N3Cc4c(C)cc(OCC5(O)CNC5)cc4C3=O)CC2)ccc1C` [Example 138, (1s,4s)-4-(6-((3-Hydroxyazetidin-3-yl)methoxy)-4-methyl-1-oxoisoindolin-2-yl)-N-(3-methoxy-4-methylphenyl)cyclohexanecarboxamide], the IC50 is < 100 nM.

In the case of `COc1cc(NC(=O)[C@@H]2CC[C@@H](N3Cc4c(C)cc(NCCN(C)C)cc4C3=O)C2)ccc1C` [Example 139, (1R,3R)-3-(6-((2-(Dimethylamino)ethyl)amino)-4-methyl-1-oxoisoindolin-2-yl)-N-(3-methoxy-4-methylphenyl)cyclopentanecarboxamide], the IC50 is > 10000 nM.

Regarding `COc1cc(NC(=O)[C@H]2CC[C@@H](N3Cc4c(C)cc(NCC5(F)CNC5)cc4C3=O)CC2)ccc1C` [Example 140, (1s,4s)-4-(6-(((3-Fluoroazetidin-3-yl)methyl)amino)-4-methyl-1-oxoisoindolin-2-yl)-N-(3-methoxy-4-methylphenyl)cyclohexanecarboxamide], the IC50 was < 100 nM.

In the case of `COc1cc(NC(=O)[C@H]2CC[C@@H](N3Cc4c(C)cc(OCC5(F)CNC5)cc4C3=O)CC2)ccc1C` [Example 141, (1s,4s)-4-(6-((3-Fluoroazetidin-3-yl)methoxy)-4-methyl-1-oxoisoindolin-2-yl)-N-(3-methoxy-4-methylphenyl)cyclohexanecarboxamide], the IC50 was < 100 nM.

As to `COc1cc(NC(=O)[C@H]2CC[C@@H](N3Cc4c(Br)ccc(Cl)c4C3=O)CC2)ccc1C` [Example 142, (1s,4s)-4-(4-Bromo-7-chloro-1-oxoisoindolin-2-yl)-N-(3-methoxy-4-methylphenyl)cyclohexanecarboxamide], the IC50 lay in the range of 100 to 1000 nM.

For `COc1cc(NC(=O)[C@H]2CC[C@@H](N3Cc4c(C)ccc(Cl)c4C3=O)CC2)ccc1C` [Example 144, (1s,4s)-4-(7-Chloro-4-methyl-1-oxoisoindolin-2-yl)-N-(3-methoxy-4-methylphenyl)cyclohexanecarboxamide], the IC50 was < 100 nM.

Consider `COc1cc(NC(=O)[C@H]2CC[C@@H](N3Cc4c(C)cccc4C3=O)CC2)ccc1CO` [Example 145, (1s,4s)-N-(4-(Hydroxymethyl)-3-methoxyphenyl)-4-(4-methyl-1-oxoisoindolin-2-yl)cyclohexanecarboxamide], for which the IC50 lay within 1000 to 10000 nM.

Consider `COc1cc(NC(=O)[C@H]2CC[C@@H](N3Cc4c(C)cc(C5=CCNCC5)cc4C3=O)CC2)ccc1C` [Example 146, (1s,4s)-N-(3-Methoxy-4-methylphenyl)-4-(4-methyl-1-oxo-6-(1,2,3,6-tetrahydropyridin-4-yl)isoindolin-2-yl)cyclohexanecarboxamide], for which the IC50 is < 100 nM.

In the case of `COc1cc(NC(=O)[C@H]2CC[C@@H](N3Cc4c(cccc4C(F)(F)F)C3=O)CC2)ccc1C` [Example 147, (1s,4s)-N-(3-Methoxy-4-methylphenyl)-4-(1-oxo-4-(trifluoromethyl)isoindolin-2-yl)cyclohexanecarboxamide], the IC50 fell in the range of 1000 to 10000 nM.

Consider `COc1cc(NC(=O)[C@H]2CC[C@@H](N3Cc4ccccc4C3=O)CC2)ccc1C` [Example 148, (1s,4s)-N-(3-Methoxy-4-methylphenyl)-4-(1-oxoisoindolin-2-yl)cyclohexanecarboxamide], for which the IC50 is 1000 to 10000 nM.

Turning to `COc1cc(NC(=O)[C@H]2CC[C@@H](N3Cc4c(Cl)cccc4C3=O)CC2)ccc1C` [Example 149, (1s,4s)-4-(4-Chloro-1-oxoisoindolin-2-yl)-N-(3-methoxy-4-methylphenyl)cyclohexanecarboxamide], the IC50 was in the range of 100 to 1000 nM.

Regarding `COc1cc(NC(=O)[C@H]2CC[C@@H](N3Cc4c(Br)cccc4C3=O)CC2)ccc1C` [Example 150, (1s,4s)-4-(4-Bromo-1-oxoisoindolin-2-yl)-N-(3-methoxy-4-methylphenyl)cyclohexanecarboxamide], the IC50 lay in the range of 100 to 1000 nM.

On to `COc1cc(NC(=O)[C@H]2CC[C@@H](N3Cc4c(cccc4C4CC4)C3=O)CC2)ccc1C` [Example 151, (1s,4s)-4-(4-Cyclopropyl-1-oxoisoindolin-2-yl)-N-(3-methoxy-4-methylphenyl)cyclohexanecarboxamide], for which the IC50 lay in the range of 1000 to 10000 nM.

Regarding `COc1cc(NC(=O)[C@H]2CC[C@@H](N3Cc4c(cccc4C4CCC4)C3=O)CC2)ccc1C` [Example 152, (1s,4s)-4-(4-Cyclobutyl-1-oxoisoindolin-2-yl)-N-(3-methoxy-4-methylphenyl)cyclohexanecarboxamide], the IC50 is > 10000 nM.

Consider `COc1cc(NC(=O)[C@H]2CC[C@@H](N3Cc4c(C)cccc4C3=O)CC2)ccc1C` [Example 153, (1s,4s)-N-(3-Methoxy-4-methylphenyl)-4-(4-methyl-1-oxoisoindolin-2-yl)cyclohexanecarboxamide], for which the IC50 was 100 to 1000 nM.

Take `COc1cc(NC(=O)[C@H]2CC[C@@H](N3Cc4c(N)cccc4C3=O)CC2)ccc1C` [Example 154, (1s,4s)-4-(4-Amino-1-oxoisoindolin-2-yl)-N-(3-methoxy-4-methylphenyl)cyclohexanecarboxamide]: the IC50 lay within 1000 to 10000 nM.

`C=Cc1cccc2c1CN([C@H]1CC[C@@H](C(=O)Nc3ccc(C)c(OC)c3)CC1)C2=O` [Example 155, (1s,4s)-N-(3-Methoxy-4-methylphenyl)-4-(1-oxo-4-vinylisoindolin-2-yl)cyclohexanecarboxamide]: the IC50 lay within 100 to 1000 nM.

Regarding `CCc1cccc2c1CN([C@H]1CC[C@@H](C(=O)Nc3ccc(C)c(OC)c3)CC1)C2=O` [Example 156, (1s,4s)-4-(4-Ethyl-1-oxoisoindolin-2-yl)-N-(3-methoxy-4-methylphenyl)cyclohexanecarboxamide], the IC50 lay in the range of 1000 to 10000 nM.

Regarding `C=C(C)c1cccc2c1CN([C@H]1CC[C@@H](C(=O)Nc3ccc(C)c(OC)c3)CC1)C2=O` [Example 157, (1s,4s)-N-(3-Methoxy-4-methylphenyl)-4-(1-oxo-4-(prop-1-en-2-yl)isoindolin-2-yl)cyclohexanecarboxamide], the IC50 is > 10000 nM.

The values are drawn from patent US20260317356A1, “SMALL MOLECULE MODULATORS OF OGG1” (AZKARRA THERAPEUTICS, INC., priority 2023, published 2026).
